Data set [1] concerns Poliovirus type 1 (Polio 1, Sabin). Nature of the data set: microbe, parasite or virus in culture. Format: cell-based.
Data set [2] concerns echovirus type 11 (Echo 11, Gregory). Briefly: In vitro anti-picornavirus activity (MTT), Echo 11. It counts as cell-based. The following applies: HeLa-S3 cells, MTT method, 37° C.
Data set [3] has as its system coxsackievirus type A7 (CA7). Briefly: In vitro anti-picornavirus activity (MTT), CA7. Format: cell-based. The following applies: HeLa-S3 cells, MTT method, 37° C.
For data set [4], the system named is coxsackievirus type B4 (CB4,JVB). Nature of the data set: In vitro anti-picornavirus activity (MTT), CB4. Conditions: HeLa cells, MTT method, 37° C. It counts as cell-based. In general terms: Tetrazolium dyes change colour on reduction, which living cells bring about.
In data set [5] the test system is human rhinovirus type 1B (HRV 1B, B632). Nature of the data set: Anti-rhinovirus activity (MTT), HRV1B. It counts as cell-based. Conditions: HeLa (Ohio strain) cells, MTT method, 33° C.
Data set [6] relates to HRV 2 (HGP). Briefly: Anti-rhinovirus activity (MTT), HRV2. It counts as cell-based, human rhinovirus. Conditions: HeLa (Ohio strain) cells, MTT method, 33° C.
The subject of data set [7] is HRV 89 (41617-Gallo). Briefly: Anti-rhinovirus activity (MTT), HRV89. It counts as cell-based, human rhinovirus. Conditions: HeLa (Ohio strain) cells, MTT method, 33° C.
The test system of data set [8] is HeLa cells. Nature of the data set: Cytotoxicity (MTT, without virus), HeLa. The following applies: HeLa, no virus, incubated for 4 days.
In data set [9] the test system is HeLa-S3 cells. Briefly: Cytotoxicity (MTT, without virus), HeLa-S3. The following applies: HeLa-S3, no virus, incubated for 4 days.
Data set [10] deals with HeLa (Ohio strain)cells. Briefly: Cytotoxicity (MTT, without virus), HeLa(Ohio). The following applies: HeLa(Ohio), no virus, incubated for 4 days.

Values after ≈ are worked out from the molar mass of the structure shown. A value given as a limit tells only on which side of the number the result lay.

As for `CCn1c(-c2cccs2)cc(=O)c2cc(C(C)C)ccc21` [Compound A309], the “IC50 Polio 1” value in [1] is 0.76 µg/mL (≈ 2.56 µM). For the same compound, the “IC50 Echo 11” value in data set [2] is 0.28 µg/mL (≈ 0.941 µM). For the same compound, in [3], the “IC50 CA7” value is 3.3 µg/mL (≈ 11.1 µM). Further, in [4], the “IC50 CB4” value came out at 1.5 µg/mL (≈ 5.04 µM). The “IC50 HRV1B” value in data set [5] turned out to be 0.48 µg/mL (≈ 1.61 µM). The “IC50 HRV2” value in data set [6] was found to be 0.25 µg/mL (≈ 0.841 µM). In addition, the “IC50 HRV89” value in [7] stood at 0.58 µg/mL (≈ 1.95 µM). For the same compound, in data set [8], the “Cytotoxicity CC50 HeLa” value came to 12 µg/mL. Also, the “Cytotoxicity CC50 HeLa-S3” value in [9] is 18 µg/mL. Also, in data set [10], the “Cytotoxicity CC50 HeLa(Ohio)” value amounted to 14 µg/mL.

As for `CCn1c(-c2cccs2)c(C)c(=O)c2cc(C(C)C)ccc21` [Compound A311], the “IC50 Polio 1” value in data set [1] came out at 0.67 µg/mL (≈ 2.15 µM). The “IC50 Echo 11” value in data set [2] was 0.42 µg/mL (≈ 1.35 µM). Besides, the “IC50 CA7” value in [3] worked out at 3.3 µg/mL (≈ 10.6 µM). Moreover, in data set [4], the “IC50 CB4” value worked out at 2.0 µg/mL (≈ 6.42 µM). In addition, the “IC50 HRV1B” value in [5] was determined as 1.0 µg/mL (≈ 3.21 µM). The “IC50 HRV2” value in data set [6] is 0.53 µg/mL (≈ 1.7 µM). For the same compound, the “IC50 HRV89” value in data set [7] turned out to be 1.2 µg/mL (≈ 3.85 µM). For the same compound, the “Cytotoxicity CC50 HeLa” value in [8] turned out to be 6.8 µg/mL. For the same compound, the “Cytotoxicity CC50 HeLa-S3” value in data set [9] is over 10 µg/mL. The “Cytotoxicity CC50 HeLa(Ohio)” value in data set [10] is over 10 µg/mL.

As for `CCn1c(-c2ccsc2)cc(=O)c2cc(C(C)C)ccc21` [Compound A313], in data set [1], the “IC50 Polio 1” value was 0.94 µg/mL (≈ 3.16 µM). Moreover, the “IC50 Echo 11” value in data set [2] came out at 0.35 µg/mL (≈ 1.18 µM). In data set [3], the “IC50 CA7” value was 3.8 µg/mL (≈ 12.8 µM). Also, in [4], the “IC50 CB4” value was 3.0 µg/mL (≈ 10.1 µM). Also, in data set [5], the “IC50 HRV1B” value was 0.90 µg/mL (≈ 3.03 µM). For the same compound, the “IC50 HRV2” value in data set [6] worked out at 0.33 µg/mL (≈ 1.11 µM). Also, the “IC50 HRV89” value in [7] amounted to 0.96 µg/mL (≈ 3.23 µM). The “Cytotoxicity CC50 HeLa” value in data set [8] was determined as 18 µg/mL. The “Cytotoxicity CC50 HeLa-S3” value in data set [9] was over 20 µg/mL. Moreover, the “Cytotoxicity CC50 HeLa(Ohio)” value in [10] was found to be 15 µg/mL.

Take `Cc1ccc(-c2cc(=O)c3cc(C(C)C)ccc3n2C)s1` [Compound A314]: the “IC50 Polio 1” value in [1] was found to be 0.60 µg/mL (≈ 2.02 µM). Moreover, the “IC50 Echo 11” value in [2] is 0.51 µg/mL (≈ 1.71 µM). The “IC50 CA7” value in data set [3] turned out to be 1.5 µg/mL (≈ 5.04 µM). The “IC50 CB4” value in data set [4] is 0.82 µg/mL (≈ 2.76 µM). The “IC50 HRV1B” value in [5] is 0.56 µg/mL (≈ 1.88 µM). In [6], the “IC50 HRV2” value was 0.55 µg/mL (≈ 1.85 µM). Besides, in data set [7], the “IC50 HRV89” value was 0.38 µg/mL (≈ 1.28 µM). In addition, the “Cytotoxicity CC50 HeLa” value in data set [8] was found to be 7.0 µg/mL. Moreover, in data set [9], the “Cytotoxicity CC50 HeLa-S3” value is over 10 µg/mL. The “Cytotoxicity CC50 HeLa(Ohio)” value in [10] is over 10 µg/mL.

As for `CCn1c(-c2ccc(C)s2)cc(=O)c2cc(C(C)C)ccc21` [Compound A315], in data set [1], the “IC50 Polio 1” value was 0.54 µg/mL (≈ 1.73 µM). In addition, in data set [2], the “IC50 Echo 11” value was 0.30 µg/mL (≈ 0.963 µM). Besides, the “IC50 CA7” value in data set [3] is 1.2 µg/mL (≈ 3.85 µM). Also, in data set [4], the “IC50 CB4” value was found to be 0.63 µg/mL (≈ 2.02 µM). Besides, the “IC50 HRV1B” value in data set [5] amounted to 0.52 µg/mL (≈ 1.67 µM). Moreover, the “IC50 HRV2” value in data set [6] amounted to 0.28 µg/mL (≈ 0.899 µM). In data set [7], the “IC50 HRV89” value came out at 0.26 µg/mL (≈ 0.835 µM). In addition, the “Cytotoxicity CC50 HeLa” value in data set [8] stood at 7.1 µg/mL. Also, in data set [9], the “Cytotoxicity CC50 HeLa-S3” value was over 10 µg/mL. In data set [10], the “Cytotoxicity CC50 HeLa(Ohio)” value is over 10 µg/mL.

Consider `CC(C)c1ccc2c(c1)c(=O)cc(-c1ccc(Br)s1)n2C` [Compound A316], for which the “IC50 Polio 1” value in data set [1] worked out at 0.78 µg/mL (≈ 2.15 µM). Further, the “IC50 Echo 11” value in [2] worked out at 0.39 µg/mL (≈ 1.08 µM). For the same compound, in data set [3], the “IC50 CA7” value turned out to be 1.2 µg/mL (≈ 3.31 µM). In addition, in data set [4], the “IC50 CB4” value is 1.1 µg/mL (≈ 3.04 µM). For the same compound, the “IC50 HRV1B” value in [5] was found to be 0.56 µg/mL (≈ 1.55 µM). The “IC50 HRV2” value in data set [6] stood at 0.29 µg/mL (≈ 0.8 µM). Besides, in [7], the “IC50 HRV89” value stood at 0.27 µg/mL (≈ 0.745 µM). For the same compound, the “Cytotoxicity CC50 HeLa” value in data set [8] is over 5 µg/mL. In addition, the “Cytotoxicity CC50 HeLa-S3” value in data set [9] was over 5 µg/mL. Besides, in data set [10], the “Cytotoxicity CC50 HeLa(Ohio)” value was over 5 µg/mL.

With `CCn1c(-c2ccc(Br)s2)cc(=O)c2cc(C(C)C)ccc21` [Compound A317], the “IC50 Polio 1” value in data set [1] was 0.81 µg/mL (≈ 2.15 µM). Moreover, the “IC50 Echo 11” value in data set [2] was 0.35 µg/mL (≈ 0.93 µM). In data set [3], the “IC50 CA7” value amounted to 2.6 µg/mL (≈ 6.91 µM). The “IC50 CB4” value in data set [4] turned out to be 1.1 µg/mL (≈ 2.92 µM). In addition, the “IC50 HRV1B” value in data set [5] worked out at 0.82 µg/mL (≈ 2.18 µM). In addition, in [6], the “IC50 HRV2” value was 0.43 µg/mL (≈ 1.14 µM). Also, the “IC50 HRV89” value in data set [7] is 0.40 µg/mL (≈ 1.06 µM). Further, the “Cytotoxicity CC50 HeLa” value in data set [8] was over 5 µg/mL. In addition, the “Cytotoxicity CC50 HeLa-S3” value in data set [9] was over 5 µg/mL. In addition, the “Cytotoxicity CC50 HeLa(Ohio)” value in data set [10] is over 5 µg/mL.

Consider `Cc1c(-c2cccs2)n(C)c2ccc(OCC(C)C)c(C)c2c1=O` [Compound A318], for which, in [1], the “IC50 Polio 1” value was found to be 0.47 µg/mL (≈ 1.38 µM). For the same compound, the “IC50 Echo 11” value in data set [2] is 0.27 µg/mL (≈ 0.791 µM). Also, in data set [3], the “IC50 CA7” value was 2.0 µg/mL (≈ 5.86 µM). For the same compound, in data set [4], the “IC50 CB4” value was 0.65 µg/mL (≈ 1.9 µM). For the same compound, in data set [5], the “IC50 HRV1B” value worked out at 0.45 µg/mL (≈ 1.32 µM). The “IC50 HRV2” value in [6] is 0.38 µg/mL (≈ 1.11 µM). Also, the “IC50 HRV89” value in [7] amounted to 0.16 µg/mL (≈ 0.469 µM). The “Cytotoxicity CC50 HeLa” value in data set [8] is over 2.5 µg/mL. The “Cytotoxicity CC50 HeLa-S3” value in data set [9] is over 2.5 µg/mL. Besides, the “Cytotoxicity CC50 HeLa(Ohio)” value in [10] was over 2.5 µg/mL.

The values above are taken from patent US7109338B2, “1,2-disubstituted 1,4-dihydro-4-oxoquinoline compounds” (priority 1999, dated 2006).
